Experiment: Effect of compound on gelation time of human serum induced by dithiothreitol (DTT)
Format: ADME

NC(CSSCC(N)C(=O)O)C(=O)O (stereo not drawn)
Inhibitory concentration: 20 mM

C=CCSS/C=C/C[S+]([O-])CC=C (stereo not drawn) [AJOENE]
Inhibitory concentration: 10 mM

O=C1O[C@H]([C@@H](O)CO)C(O)=C1O [ASCORBIC ACID]
Inhibitory concentration: > 100 mM

N[C@@H](CS)C(=O)O [CYSTEINE]
Inhibitory concentration: > 200 mM

O=C1OC(C(O)CO)C(=O)C1=O (stereo not drawn) [DEHYDROASCORBIC ACID]
Inhibitory concentration: 20 mM

C=CCSCC=C [DIALLYL SULFIDE]
Inhibitory concentration: > 200 mM

C=CCSSCC=C [DIALLYLDISULFIDE]
Inhibitory concentration: 20 mM

CC(=O)C=O [METHYLGLYOXAL]
Inhibitory concentration: 20 mM

— ChEMBL document CHEMBL1126463, “Thiol-induced crosslinking of human blood proteins: implications for tumor immunity” (Bioorg Med Chem Lett, 1992)
